In patent publication US20160130577A1, “NUCLEOTIDE SEQUENCE MOTIFS DIRECTING NUCLEIC ACID LOCATION TO EXTRACELLULAR VESICLES” (FUNDACIÓN CENTRO NACIONAL DE INVESTIGACIONES …, priority 2012, published 2016):

Assays:
hnRNPA2B1 [1] = assay: hnRNPA2B1 IP-qPCR from EV lysates of control or AA-treated cells; type: cell-based, human; conditions: EV lysates from AA-treated versus control cells
Method: (§1) To confirm whether the higher molecular weight of EVs hnRNPA2B1 was due to sumoylation, we cultured Jurkat T cells in the presence of the specific sumoylation inhibitor anacardic acid (AA). Briefly, cells were cultured with anacardic acid (100 μM) (Sigma) or 6 DMSO for 4 h at 37° C. Cells were then diluted 1:4 and incubated overnight. EVs and cells were resuspended in buffer 1 for western blotting or hnRNPA2B1 immunoprecipitation (FIG. 13B).

Jurkat T cells [2] = assay: Western blot of EVs for CD81 and cytochrome c (EV secretion, cell death); type: cell-based; conditions: anacardic acid versus DMSO
Method: (§2) FIG. 13. Assessment of sumoylation inhibitor efficiency. (A) Western blot analysis of hnRNPA1 in T cells and their EVs. (B) Representative western blot showing the decrease in sumo-conjugated proteins in the presence of anacardic acid. Cells were incubated with anacardic acid (AA) or DMSO (control condition, CONT) and cell extracts were blotted for SUMO-1. (C) Representative western blot showing no changes in EV secretion and cell death in the presence of anacardic acid. Cells were incubated with anacardic acid (AA) or DMSO (CONT), and EV were purified by ultracentrifugation and blotted for CD81 and cytochrome c.
as §1

Jurkat T cells [3] = assay: qPCR of miRNA levels in EVs from control or AA-treated cells; type: cell-based, human; conditions: anacardic acid 100 μM versus DMSO
hnRNPA2B1 sumoylation = assay: Western blot of hnRNPA2B1 molecular weight in EVs with sumoylation inhibitor; type: cell-based, human; conditions: anacardic acid 100 μM 4 h, then diluted 1:4 overnight; versus DMSO
Method: as §1

sumo-conjugated proteins = assay: Western blot of cell extracts for SUMO-1 (sumoylation inhibitor efficiency); type: cell-based, human; conditions: anacardic acid versus DMSO
Method: as §2, §1

hnRNPA1 = molecular target: T1, hnRNPA1 (Homo sapiens, UniProt P09651); assay: pull-down of EV extracts with biotinylated miRNA-coated streptavidin beads, mass spectrometry; type: binding
T1 construct: endogenous in cells; host or cells: extracellular vesicles from primary human T lymphoblasts
T1 sequence (P09651 whole entry): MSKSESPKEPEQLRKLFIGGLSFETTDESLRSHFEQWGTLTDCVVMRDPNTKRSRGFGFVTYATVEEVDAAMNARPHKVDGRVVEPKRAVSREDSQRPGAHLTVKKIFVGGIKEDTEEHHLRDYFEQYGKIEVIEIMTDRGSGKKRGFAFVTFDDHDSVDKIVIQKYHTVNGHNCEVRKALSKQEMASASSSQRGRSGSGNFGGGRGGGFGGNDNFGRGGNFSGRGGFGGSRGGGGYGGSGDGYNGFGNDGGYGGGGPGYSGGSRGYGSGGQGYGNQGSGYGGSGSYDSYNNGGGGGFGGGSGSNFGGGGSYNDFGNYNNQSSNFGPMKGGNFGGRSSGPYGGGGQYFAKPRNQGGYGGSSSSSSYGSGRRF
Method: (§3) To analyze the molecular mechanism that controls the packaging of miRNAs presenting the motifs of the invention in EVs, a search was performed of the proteins present in EVs and which bind specifically to EVmiRNAs. For this purpose, extracts of isolated EVs from human T lymphoblasts were incubated in the presence of streptavidin beads coated with biotinylated EVmiRNA miR-198, or with biotinylated CLmiRNA miR-17. The analysis of EVs-coupled beads was performed by FACS. Briefly, Evs were obtained by ultracentrifugation and sucrose gradient flotation, resuspended in PBS and coupled to 4 μm aldehyde-sulfate beads (Invitrogen) overnight at room temperature in rotation. Beads were washed and blocked for 60 min at room temperature in 4% BSA in PBS. For intracellular staining, bead-bound Evs were permeabilized and fixed for 5 min at room temperature with 0.2% TX, 2% FA in PBS. Beads were incubated with antihnRNPA2B1 (Santa Cruz) or anti-CD81 (5A6, Santa Cruz) for 1 h at 4° C., washed and incubated with Alexa-488-goat-anti-mouse IgG (Invitrogen) for 30 min. Beads were acquired on a FACSCalibur (BD) and data were analyzed with FlowJo software (Tree Star). Negative controls were obtained with EV-coupled beads incubated with the secondary antibody. The proteins collected were identified by high performance mass spectrometry. As negative controls, uncoated or poly-A-coated streptavidin beads were used. Briefly, proteins were in-gel digested using a previously-described protocol. Briefly, 75 μl of beads were suspended in 25 μl sample buffer and loaded in 2.8-cm-wide wells of an SDS-PAGE gel. The run was stopped as soon as the front entered 3 mm into the resolving gel; the protein band was visualized by Coomassie staining, excised and digested overnight at 37° C. with 60 ng/μl trypsin at 5:1 protein:trypsin (w/w) ratio in 50 mM ammonium bicarbonate, pH 8.8 containing 10% ACN. The resulting tryptic peptides were extracted by 1 h incubation in 12 mM ammonium bicarbonate, pH 8.8. TFA was added to a final concentration of 1% and the peptides were finally desalted onto C18 Oasis cartridges and dried down. Peptide identification by mass spectrometry was performed as described. Briefly, the peptides were resuspended and injected onto a C-18 reversed phase (RP) nano-column (75 μm 2 I.D.×25 cm, Acclaim PepMap100, Thermo Scientific) and analyzed in a continuous acetonitrile gradient consisting of 0-43% B in 90 min, 50-90% B in 1 min (B=90% acetonitrile, 0.5% acetic acid). A flow rate of ca. 300 nL/min was used to elute peptides from the RP nano-column to an emitter nanospray needle for real time ionization and peptide fragmentation on an LTQ XP Orbitrap mass spectrometer (Thermo Fisher, San José, Calif., USA). An enhanced FT spectrum (30.000 resolution) followed by MS/MS spectra from most intense ten parent ions were performed along the chromatographic run (130 min). Dynamic exclusion was set at 30 s. The MS/MS raw files were searched against the Human Swissprot database (Uniprot release 14.0, 19929 sequence entries for human) supplemented with porcine trypsin and bacterial Streptavidin. SEQUEST results were validated using the probability ratio method and false discovery rates calculated using the refined method. Peptide and scan counting was performed assuming as positive events those with a FDR equal to or lower than 5%.

RS4X = molecular target: T2, RS4X (Homo sapiens, UniProt P62701); assay: as above; type: binding; conditions: RS4X precipitated from EV extracts of human T lymphoblasts
T2 construct: endogenous in cells; host or cells: extracellular vesicles from primary human T lymphoblasts
Method: as §3

RS3 = molecular target: T3, RS3 (Homo sapiens, UniProt P23396); assay: as above; type: binding; conditions: RS3 precipitated from EV extracts of human T lymphoblasts
T3 construct: endogenous in cells; host or cells: extracellular vesicles from primary human T lymphoblasts
Method: as §3

HNRPU = molecular target: T4, HNRPU (Homo sapiens, UniProt Q00839); assay: as above; type: binding; conditions: HNRPU precipitated from EV extracts of human T lymphoblasts
T4 construct: endogenous in cells; host or cells: extracellular vesicles from primary human T lymphoblasts
T4 sequence (Q00839 whole entry): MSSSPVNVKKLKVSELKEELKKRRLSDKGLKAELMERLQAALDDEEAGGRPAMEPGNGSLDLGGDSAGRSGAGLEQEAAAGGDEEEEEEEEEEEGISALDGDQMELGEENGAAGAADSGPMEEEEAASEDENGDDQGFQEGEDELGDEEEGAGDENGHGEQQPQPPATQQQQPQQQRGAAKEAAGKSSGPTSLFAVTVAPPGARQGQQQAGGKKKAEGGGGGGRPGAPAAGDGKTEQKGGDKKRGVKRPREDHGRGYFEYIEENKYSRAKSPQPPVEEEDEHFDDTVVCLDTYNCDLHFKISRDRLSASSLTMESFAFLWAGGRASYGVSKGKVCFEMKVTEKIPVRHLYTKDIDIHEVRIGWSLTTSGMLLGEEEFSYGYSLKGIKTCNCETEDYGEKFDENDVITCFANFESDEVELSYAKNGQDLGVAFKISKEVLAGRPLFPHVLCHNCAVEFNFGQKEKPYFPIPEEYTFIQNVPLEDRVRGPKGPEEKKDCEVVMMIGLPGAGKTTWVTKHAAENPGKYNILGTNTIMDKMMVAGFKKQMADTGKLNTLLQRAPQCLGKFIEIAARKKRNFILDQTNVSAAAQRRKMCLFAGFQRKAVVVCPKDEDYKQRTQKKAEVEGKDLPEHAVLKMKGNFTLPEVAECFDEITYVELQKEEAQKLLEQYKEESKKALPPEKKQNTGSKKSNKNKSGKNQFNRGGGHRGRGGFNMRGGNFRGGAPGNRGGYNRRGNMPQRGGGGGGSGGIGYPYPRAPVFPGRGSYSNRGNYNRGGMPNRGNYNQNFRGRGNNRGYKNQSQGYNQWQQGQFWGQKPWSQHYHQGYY
Method: as §3

HNRPC = molecular target: T5, HNRPC (Homo sapiens, UniProt P07910); assay: as above; type: binding; conditions: HNRPC precipitated from EV extracts of human T lymphoblasts
T5 construct: endogenous in cells; host or cells: extracellular vesicles from primary human T lymphoblasts
T5 sequence (P07910 whole entry): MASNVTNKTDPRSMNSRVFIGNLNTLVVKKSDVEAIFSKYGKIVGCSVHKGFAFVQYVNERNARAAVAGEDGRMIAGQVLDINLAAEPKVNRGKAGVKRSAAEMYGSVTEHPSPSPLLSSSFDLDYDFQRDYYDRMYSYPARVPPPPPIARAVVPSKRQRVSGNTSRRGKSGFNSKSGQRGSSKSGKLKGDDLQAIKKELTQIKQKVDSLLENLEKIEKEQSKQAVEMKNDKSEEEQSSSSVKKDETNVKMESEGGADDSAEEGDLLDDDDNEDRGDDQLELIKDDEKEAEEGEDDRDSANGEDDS
Method: as §3

NUCL = molecular target: T6, NUCL (Homo sapiens, UniProt P19338); assay: as above; type: binding; conditions: NUCL precipitated from EV extracts of human T lymphoblasts
T6 construct: endogenous in cells; host or cells: extracellular vesicles from primary human T lymphoblasts
T6 sequence (P19338 whole entry): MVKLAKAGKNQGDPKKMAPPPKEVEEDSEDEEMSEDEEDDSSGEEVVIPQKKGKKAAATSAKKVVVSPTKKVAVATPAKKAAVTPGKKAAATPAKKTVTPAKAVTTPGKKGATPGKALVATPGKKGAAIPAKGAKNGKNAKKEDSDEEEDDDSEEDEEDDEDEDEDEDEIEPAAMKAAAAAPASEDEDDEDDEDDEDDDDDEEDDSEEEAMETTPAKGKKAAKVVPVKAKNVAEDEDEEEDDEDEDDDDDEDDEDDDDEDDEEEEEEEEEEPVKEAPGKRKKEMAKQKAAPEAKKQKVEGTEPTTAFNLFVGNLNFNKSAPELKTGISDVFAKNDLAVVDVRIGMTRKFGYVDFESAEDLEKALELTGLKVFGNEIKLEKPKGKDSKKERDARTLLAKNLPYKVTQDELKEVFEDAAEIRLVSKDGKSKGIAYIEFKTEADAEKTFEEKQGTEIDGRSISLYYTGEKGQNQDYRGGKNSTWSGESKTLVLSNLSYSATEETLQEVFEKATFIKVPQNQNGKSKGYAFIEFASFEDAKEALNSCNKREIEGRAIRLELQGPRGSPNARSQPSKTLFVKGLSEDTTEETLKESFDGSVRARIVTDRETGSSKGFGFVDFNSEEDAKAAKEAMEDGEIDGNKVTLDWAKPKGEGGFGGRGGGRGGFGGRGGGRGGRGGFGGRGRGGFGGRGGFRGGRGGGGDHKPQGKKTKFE
Method: as §3

hnRNPA2B1 [4] = assay: as above; type: binding, human
Method: To analyze the molecular mechanism that controls the packaging of miRNAs presenting the motifs of the invention in EVs, a search was performed of the proteins present in EVs and which bind specifically to EVmiRNAs. For this purpose, extracts of isolated EVs from human T lymphoblasts were incubated in the presence of streptavidin beads coated with biotinylated EVmiRNA miR-198, or with biotinylated CLmiRNA miR-17. The analysis of EVs-coupled beads was performed by FACS. Briefly, Evs were obtained by ultracentrifugation and sucrose gradient flotation, resuspended in PBS and coupled to 4 μm aldehyde-sulfate beads (Invitrogen) overnight at room temperature in rotation. Beads were washed and blocked for 60 min at room temperature in 4% BSA in PBS. For intracellular staining, bead-bound Evs were permeabilized and fixed for 5 min at room temperature with 0.2% TX, 2% FA in PBS. […] Beads were acquired on a FACSCalibur (BD) and data were analyzed with FlowJo software (Tree Star). […] Briefly, the peptides were resuspended and injected onto a C-18 reversed phase (RP) nano-column (75 μm 2 I.D.×25 cm, Acclaim PepMap100, Thermo Scientific) and analyzed in a continuous acetonitrile gradient consisting of 0-43% B in 90 min, 50-90% B in 1 min (B=90% acetonitrile, 0.5% acetic acid). […] SEQUEST results were validated using the probability ratio method and false discovery rates calculated using the refined method. […]
Target sequence in this assay (P22626 15-353 limits assumed): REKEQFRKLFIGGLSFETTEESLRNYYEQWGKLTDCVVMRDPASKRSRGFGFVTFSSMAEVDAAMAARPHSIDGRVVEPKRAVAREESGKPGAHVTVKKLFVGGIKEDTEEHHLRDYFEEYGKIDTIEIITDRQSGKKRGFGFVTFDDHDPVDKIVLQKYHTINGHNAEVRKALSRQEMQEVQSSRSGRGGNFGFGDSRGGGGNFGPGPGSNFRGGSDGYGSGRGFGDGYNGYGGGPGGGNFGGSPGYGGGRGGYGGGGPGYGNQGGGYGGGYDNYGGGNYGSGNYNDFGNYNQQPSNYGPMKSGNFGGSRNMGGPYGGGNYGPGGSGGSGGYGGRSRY

Row | Number of peptides identified by mass spectrometry (hnRNPA1; hnRNPA1 precipitated from EV extracts of human T lymphoblasts) | binding of hnRNPA1 (in words) (hnRNPA1; pull-down from EV extracts) | Number of peptides identified by mass spectrometry (RS4X) | Number of peptides identified by mass spectrometry (RS3) | Number of peptides identified by mass spectrometry (HNRPU) | Number of peptides identified by mass spectrometry (HNRPC) | Number of peptides identified by mass spectrometry (NUCL) | binding of hnRNPA2B1 (in words) (hnRNPA2B1 [4]; pull-down from EV extracts) | Compound | miR-198 bound to hnRNPA2B1 (IP-qPCR) (hnRNPA2B1 [1]) | EV secretion (CD81 blot) (Jurkat T cells [2]) | cell death (cytochrome c blot) (Jurkat T cells [2]) | levels of miR-17 in EVs (Jurkat T cells [3]) | levels of miR-18 in EVs (Jurkat T cells [3]) | levels of miR-198 in EVs (Jurkat T cells [3]) | low-molecular weight hnRNPA2B1 band in EVs (hnRNPA2B1 sumoylation) | sumo-conjugated proteins (SUMO-1 blot) (sumo-conjugated proteins) | Number of peptides identified by mass spectrometry (hnRNPA2B1 [4]; hnRNPA2B1 precipitated from EV extracts of human T lymphoblasts)
1 | – | – | – | – | – | – | – | – | CCCCCCCCCCCCCCCc1cccc(O)c1C(=O)O [anacardic acid] | decreased binding | no changes | no changes | did not change | did not change | reduced | could be readily detected | decrease | –
2 | 0 | no binding | 0 | 0 | 0 | 0 | 8 | no binding | poly-A | – | – | – | – | – | – | – | – | 0
